Earlier results on one compound are cited in patent US10961240B2, “Formulations of a compound modulating kinases” (Plexxikon Inc., priority 2017, dated 2021).

Molecules are shown by their SMILES.

Data set [1] has as its system MPNST xenograft.
In data set [2] the test system is TGCT. The note with it: phase III.
Data set [3] deals with neurofibromatosis affected mice.
The subject of data set [4] is microglia. The note with it: sustained after intracerebral hemorrhage.
The test system of data set [5] is mouse melanoma models. The note with it: with tumor-specific CD8 T cells.
Data set [6] relates to Hodgkin Lymphoma. The note with it: heavily pretreated patient cohort.

Turning to `FC(F)(F)c1ccc(CNc2ccc(Cc3c[nH]c4ncc(Cl)cc34)cn2)cn1` [Compound I], the tumor growth entry in data set [1] (MPNST xenograft) is “significant suppression of tumor growth”. For the same compound, the “blockade of receptor tyrosine kinases” value in data set [1] (MPNST xenograft samples) was “sustained blockade of c-Kit, c-Fms and PDGFRβ”. In addition, in data set [2], the “primary endpoint: tumor response measured by tumor size reduction” value is “met its primary endpoint”. Besides, in data set [3], the bone loss result is listed as “prevented bone loss”. For the same compound, the microglia depletion result in data set [4] was “effectively depleted microglia”. In data set [5], the “control of tumor outgrowth” value is listed as “strongly promoted the control of tumor outgrowth”. For the same compound, in data set [6], the efficacy entry is listed as “modest efficacy” and the safety profile result is “manageable safety profile”.
